Test results reported in PubChem BioAssay (NCI).
Where “and” joins values, the source holds several entries; their conditions need not be identical. Identical values can stand only once.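 Five concentrations, 48 hours, 96-well plates. GI50 marks 50% less growth. TGI: concentration producing complete growth inhibition.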

Assays:
Assay in all cases: DTP human tumour cell line panel, 48 h; in the data active = GI50 below about 0.43 µM; inactive = the rest
EKVX NSCLC = tested on: EKVX NSCLC
SNB-19 CNS = tested on: SNB-19 CNS
K-562 leukemia = tested on: K-562 leukemia
A549 NSCLC = tested on: A549 NSCLC
SN12C renal = tested on: SN12C renal
OVCAR-5 ovarian = tested on: OVCAR-5 ovarian
A498 renal = tested on: A498 renal
NCI-H226 lung = tested on: NCI-H226 lung
DU-145 prostate = tested on: DU-145 prostate
HCT-116 colon = tested on: HCT-116 colon

COC(=O)C(C)Sc1nc2cc(Cl)ccc2s1 (stereo not given)
> 100 µM: TGI (EKVX NSCLC) | TGI (SNB-19 CNS) | TGI (K-562 leukemia) | TGI (A549 NSCLC) | TGI (SN12C renal) | TGI (OVCAR-5 ovarian) | TGI (A498 renal) | TGI (NCI-H226 lung) | TGI (DU-145 prostate) | TGI (HCT-116 colon)

CSc1ncc2c(n1)-c1ccccc1OC2N1CCCC1 (stereo not given)
26.1 µM: TGI (A498 renal)
> 100 µM: TGI (EKVX NSCLC) | TGI (SNB-19 CNS) | TGI (K-562 leukemia) | TGI (A549 NSCLC) | TGI (SN12C renal) | TGI (OVCAR-5 ovarian) | TGI (NCI-H226 lung) | TGI (DU-145 prostate) | TGI (HCT-116 colon)

CCOC(=O)C(Cc1ccccc1)(Cc1ccc(O)cn1)NC(=O)c1ccccc1 (stereo not given)
68.4 µM: TGI (HCT-116 colon)
> 100 µM: TGI (EKVX NSCLC) | TGI (SNB-19 CNS) | TGI (K-562 leukemia) | TGI (A549 NSCLC) | TGI (OVCAR-5 ovarian) | TGI (NCI-H226 lung) | TGI (DU-145 prostate)

N#CC1=CNc2sccc2S1(=O)=O
> 100 µM: TGI (EKVX NSCLC) | TGI (SNB-19 CNS) | TGI (A549 NSCLC) | TGI (SN12C renal) | TGI (OVCAR-5 ovarian) | TGI (A498 renal) | TGI (NCI-H226 lung) | TGI (DU-145 prostate) | TGI (HCT-116 colon)

N#CCc1nc(C#N)c(N)o1
inactive: GI50 (EKVX NSCLC) > 100 µM | GI50 (SNB-19 CNS) > 100 µM
> 100 µM: TGI (EKVX NSCLC) | TGI (SNB-19 CNS) | TGI (A549 NSCLC) | TGI (SN12C renal) | TGI (OVCAR-5 ovarian) | TGI (A498 renal) | TGI (NCI-H226 lung) | TGI (DU-145 prostate) | TGI (HCT-116 colon)

COC(=O)[C@@H]1N2C(=S)N(c3ccccc3)C(=O)[C@H]2SC1(C)C
> 100 µM: TGI (EKVX NSCLC) | TGI (SNB-19 CNS) | TGI (A549 NSCLC) | TGI (SN12C renal) | TGI (OVCAR-5 ovarian) | TGI (A498 renal) | TGI (NCI-H226 lung) | TGI (DU-145 prostate) | TGI (HCT-116 colon)

CC(C)(C)OC(=O)N1C(OP(=O)(Oc2ccccc2)Oc2ccccc2)=COc2cccnc21
> 100 µM: TGI (EKVX NSCLC) | TGI (SNB-19 CNS) | TGI (K-562 leukemia) | TGI (A549 NSCLC) | TGI (SN12C renal) | TGI (OVCAR-5 ovarian) | TGI (NCI-H226 lung) | TGI (DU-145 prostate) | TGI (HCT-116 colon)

O=[As](O)(O)c1cc(N=Nc2ccc(-c3ccc(N=Nc4cc([As](=O)(O)O)c(O)cc4O)cc3)cc2)c(O)cc1O
> 73.4 µM: TGI (A498 renal)
> 100 µM: TGI (EKVX NSCLC) | TGI (SNB-19 CNS) | TGI (K-562 leukemia) | TGI (A549 NSCLC) | TGI (SN12C renal) | TGI (NCI-H226 lung) | TGI (HCT-116 colon)
97.6 µM: TGI (OVCAR-5 ovarian)

CCCCCCCCCCCCCCCCNc1nc(=O)n(C2CC(O)C(CO)O2)cc1F (stereo not given)
26.9 µM: TGI (SN12C renal)
30.9 µM: TGI (EKVX NSCLC)
34.6 µM: TGI (SNB-19 CNS)
18.7 µM: TGI (A549 NSCLC)
47.6 µM: TGI (OVCAR-5 ovarian)
23.5 µM: TGI (HCT-116 colon)
10.8 µM: TGI (NCI-H226 lung)
21.6 µM: TGI (DU-145 prostate)

CN1C2CC(=O)CC1[C@@H]1OC(c3ccccc3)O[C@H]21 (stereo not given in full)
> 100 µM: TGI (EKVX NSCLC) | TGI (SNB-19 CNS) | TGI (K-562 leukemia) | TGI (A549 NSCLC) | TGI (SN12C renal) | TGI (NCI-H226 lung) | TGI (DU-145 prostate) | TGI (HCT-116 colon)

OCCN=C1Nc2ccc(Cl)cc2C(=S)N2CSC[C@@H]12
> 100 µM: TGI (SNB-19 CNS) | TGI (K-562 leukemia) | TGI (A549 NSCLC) | TGI (SN12C renal) | TGI (OVCAR-5 ovarian) | TGI (A498 renal) | TGI (DU-145 prostate) | TGI (HCT-116 colon)

O=C(N=Nc1ccccc1Br)NNc1ccccc1Br
> 100 µM: TGI (SNB-19 CNS) | TGI (K-562 leukemia) | TGI (A549 NSCLC) | TGI (SN12C renal) | TGI (OVCAR-5 ovarian) | TGI (A498 renal) | TGI (NCI-H226 lung) | TGI (DU-145 prostate) | TGI (HCT-116 colon)

CC[N+](C)(CC)CCN1C(=O)c2ccccc2S1(=O)=O
> 100 µM: TGI (EKVX NSCLC) | TGI (SNB-19 CNS) | TGI (A549 NSCLC) | TGI (SN12C renal) | TGI (OVCAR-5 ovarian) | TGI (A498 renal) | TGI (NCI-H226 lung) | TGI (DU-145 prostate) | TGI (HCT-116 colon)

NC(=O)CC(Nc1ncc2c(n1)-c1ccccc1OC2)C(=O)O (stereo not given)
> 100 µM: TGI (EKVX NSCLC) | TGI (SNB-19 CNS) | TGI (K-562 leukemia) | TGI (A549 NSCLC) | TGI (SN12C renal) | TGI (OVCAR-5 ovarian) | TGI (NCI-H226 lung) | TGI (DU-145 prostate) | TGI (HCT-116 colon)

CC[N+](CC)=c1ccc2nc3c(cc(N)c4ccccc43)oc-2c1
active: GI50 (SNB-19 CNS) 0.318 µM | GI50 (OVCAR-5 ovarian) 0.24 µM
1.04 µM: TGI (SNB-19 CNS)
0.495 µM: TGI (OVCAR-5 ovarian)

O=C(c1ccco1)N(C(=S)OCc1ccccn1)c1ccccc1
> 100 µM: TGI (EKVX NSCLC) | TGI (SNB-19 CNS) | TGI (K-562 leukemia) | TGI (SN12C renal) | TGI (OVCAR-5 ovarian) | TGI (A498 renal) | TGI (NCI-H226 lung) | TGI (DU-145 prostate) | TGI (HCT-116 colon)

C=C1C[C@]23C[C@@]1(O)CC[C@H]2[C@@]12C=C[C@H](O)[C@@](C)(C(=O)O1)[C@H]2[C@@H]3C(=O)O
> 100 µM: TGI (EKVX NSCLC) | TGI (SNB-19 CNS) | TGI (K-562 leukemia) | TGI (A549 NSCLC) | TGI (SN12C renal) | TGI (OVCAR-5 ovarian) | TGI (NCI-H226 lung) | TGI (HCT-116 colon)

CSc1nncc(-c2cc3c(c(SC)n2)CCC3)n1
> 100 µM: TGI (EKVX NSCLC) | TGI (SNB-19 CNS) | TGI (A549 NSCLC) | TGI (SN12C renal) | TGI (OVCAR-5 ovarian) | TGI (NCI-H226 lung) | TGI (DU-145 prostate) | TGI (HCT-116 colon)

COS(=O)c1cc(Cl)cc(Cl)c1O (stereo not given)
> 100 µM: TGI (EKVX NSCLC) | TGI (SNB-19 CNS) | TGI (K-562 leukemia) | TGI (SN12C renal) | TGI (OVCAR-5 ovarian) | TGI (A498 renal) | TGI (HCT-116 colon)

CCOC(=O)C(O)(NC(C)=O)C(F)(F)F (stereo not given)
> 100 µM: TGI (EKVX NSCLC) | TGI (SNB-19 CNS) | TGI (K-562 leukemia) | TGI (A549 NSCLC) | TGI (SN12C renal) | TGI (OVCAR-5 ovarian) | TGI (NCI-H226 lung) | TGI (DU-145 prostate) | TGI (HCT-116 colon)

O=C(NNC(=S)Nc1ccccc1)c1csc(NC(=S)NC2CCCCC2)n1
> 100 µM: TGI (EKVX NSCLC) | TGI (A549 NSCLC) | TGI (SN12C renal) | TGI (OVCAR-5 ovarian) | TGI (A498 renal) | TGI (DU-145 prostate) | TGI (HCT-116 colon)

CSC1SCC2C(=O)N(C)C3(CC3C)C(=O)OCC(NC(=O)c3nc4ccccc4cc3O)C(=O)NC(C)C(=O)N(C)C1C(=O)N(C)C1(CC1C)C(=O)OCC(NC(=O)c1nc3ccccc3cc1O)C(=O)NC(C)C(=O)N2C (stereo not given)
6.9 µM: TGI (SNB-19 CNS)
< 0.0001 µM: TGI (K-562 leukemia) | TGI (A498 renal) | TGI (NCI-H226 lung)
20.1 µM: TGI (A549 NSCLC)
0.648 µM and 0.0992 µM: TGI (EKVX NSCLC)
16.4 µM: TGI (HCT-116 colon)
> 100 µM: TGI (DU-145 prostate)

COc1ccc(-c2c(C#N)c(-c3ccccc3)n(NS(=O)(=O)c3ccccc3)c(=O)c2C#N)cc1
> 100 µM: TGI (EKVX NSCLC) | TGI (SNB-19 CNS) | TGI (K-562 leukemia) | TGI (A549 NSCLC) | TGI (SN12C renal) | TGI (OVCAR-5 ovarian) | TGI (A498 renal) | TGI (NCI-H226 lung) | TGI (HCT-116 colon)
